# Key:
# A172 = experiment: MTT assay, A172; assay type: cell-based; details: Homo sapiens, A 172; A172, 24 h of incubation; read-out: IC50 values ± SEM, MTT assay
# Protocol: (§1) Human glioblastoma cell lines (A172 CRL-1620™, U-87 MG HTB-14™, U-118 MG HTB-15™, T98G CRL-1690™) and the mouse astrocyte cell line (C8-D1A CRL-2541™) were obtained from the American Type Culture Collection (ATCC, Manassas, VA, USA). The cell lines were cultured in complete medium: DMEM (Corning, Kennebunk, ME, USA) for C8-D1A and T98G, and EMEM (ATCC, Manassas, VA, USA) for A172, U-87 MG, U118MG. The media were supplemented with 10% foetal bovine serum (Eurx, Gdansk, Poland) and 1% penicillin-streptomycin solution (Corning, Kennebunk, ME, USA). Cells were cultured in cell culture flasks (Sarstedt, Numbrecht, Germany) at 37 °C in 5% CO2. For experiments, cells were washed with phosphate-buffered saline without calcium and magnesium (Corning, Kennebunk, ME, USA) and treated with 0.05% trypsin and 0.02% EDTA (Corning, Kennebunk, ME, USA). Cells were counted using a Sceptre 3.0 cell counter (Merck Millipore, Burlington, MA, USA) prior to seeding into plates. For 6-well plates, 5 x 10^5 cells/mL were seeded, while for 96-well plates (Sarstedt, Numbrecht, Germany), 1 x 10^5 cells/mL were seeded in 100 μL of the medium.
# (§2) The cell lines were seeded in 96-well plates and cultured according to the methodology described in the previous section. Cells were then treated with the novel derivatives MM118 and MM119 and the reference compound temozolomide (TMZ) (Sigma-Aldrich, St. Louis, MO, USA) at concentrations of 0.1, 0.25, 0.5, 1.0, 2.5, 5.0, and 10.0 μM for 24 h. The MTT assay was performed using a solution of 3–(4,5-dimethyl-2-thiazolyl)-2,5-diphenyl-2H-tetrazolium bromide (Sigma-Aldrich, St. Louis, MO, USA) at a concentration of 5 mg/mL in phosphate-buffered saline without calcium and magnesium (Corning, Kennebunk, ME, USA). After 24 h incubation with test compounds, 10 μL MTT solution was added to each well, and cells were incubated for another 2 h at 37 °C. The cells were then lysed in 100 μL lysis buffer (25 mM HCl, 2% acetic acid, 3% DMF, and 5% SDS, adjusted to pH 4.7). Absorbance was measured at 570 nm using an Absorbance 96 microplate reader (Byonoy GmbH, Hamburg, Germany).
# U-87 MG [1] = experiment: MTT assay, U-87 MG; assay type: cell-based; details: Homo sapiens, 24 h of incubation, read-out: IC50 values ± SEM, MTT assay
# Protocol: as §1, §2
# U-87 MG [2] = experiment: LDH release assay, U-87 MG; assay type: cell-based, human; details: 1.5 μM, 24 h
# Protocol: Analogous to the procedure described in the previous section, A172 and U-87 MG cells were cultured and plated in 96-well plates. The LDH-Cytotoxicity Assay Kit II (ab65393) (Abcam, Cambridge, UK) was used to assess cytotoxicity according to the manufacturer’s protocol. The test compounds MM118 and MM119 and the reference compound temozolomide (TMZ) were added to the cells at a concentration of 1.5 μM. After 24 h of exposure, the medium was collected, centrifuged and 10 μL of each sample was transferred to a new 96-well plate. In the next step, 100 μL of LDH Reaction Mix was added to each well and incubated for 30 min at room temperature. Absorbance was measured at 450 nm using an Absorbance 96 microplate reader (Byonoy GmbH, Hamburg, Germany). Cytotoxicity was calculated according to the formula provided by the manufacturer: Cytotoxicity (%) = ((Test Sample – Low Control)/(High Control – Low Control)) X 100, where Low Control - control without added compound, High Control with added 10 µL Lysis Buffer II.
# caspase 8 [3] = experiment: Caspase 8 activation (FAM FLICA), A172; assay type: cell-based, human; details: A172, 1.5 μM, 24 h
# Protocol: (§3) The activity of caspase 1, caspase 3/7, caspase 8, and caspase 9 was evaluated through the utilisation of FAM FLICA Caspase Assays (ImmunoChemistry Technologies, Bloomington, MN, USA), in accordance with the established protocols. Following treatment with the compounds, the cells were collected at a concentration of 1 × 10^6 cells/mL, washed twice with cold PBS, and resuspended in 290 μL of PBS. The subsequent step involved the addition of 10 μL of 30X FLICA solution, followed by incubation at 37 °C in the absence of light for one hour. Then, 2 ml of Apoptosis Wash Buffer was added, and the samples were washed twice. A 300 μL aliquot of each sample was transferred to a BD FACSCanto II flow cytometer (Becton Dickinson Biosciences, San Jose, CA, USA), where 10,000 events per sample were recorded. The resulting data was then analysed using FACSDiva software, version 6.1.3 (BD Biosciences Systems, San Jose, CA, USA).
# caspase 8 [4] = experiment: Caspase 8 activation (FAM FLICA), U-87 MG; assay type: cell-based, human; details: 1.5 μM, 24 h
# Protocol: as §3
# caspase 3/7 = experiment: Caspase 3/7 activation (FAM FLICA), U-87 MG; assay type: cell-based, human; details: 1.5 μM, 24 h
# Protocol: as §3
# caspase 1 = experiment: Caspase 1 activation (FAM FLICA), A172; assay type: cell-based, human; details: 24 h
# Protocol: Given the activation of oxidative stress and the occurrence of apoptotic cell death, we decided to verify whether other cell death pathways are triggered. The level of pyroptosis induction of the newly synthesised compounds MM118 and MM119 was determined by assessing the activation of caspase 1. This method facilitates the identification of cells undergoing pyroptosis by detecting the active form of caspase 1, which is a pivotal mediator in the pyroptotic pathway. The tested compounds were analysed on human A172 and U-87 MG glioblastoma multiforme cell lines using concentrations of 1 μM and 1.5 μM for a period of 24 h. […] Conversely, for compound MM119 in line A172, caspase 1 activation was 12.35 ± 2.00% at a concentration of 1 μM and 21.30 ± 1.57% at a concentration of 1.5 μM. For the U-87 MG line, the values were 12.25 ± 2.16% and 24.50 ± 2.11%, respectively.
# as §3
Structure (SMILES),IC50 (A172) [nM],IC50 (U-87 MG [1]) [nM],"LDH release, cytotoxicity (U-87 MG [2]) [%]",Active caspase 8 (cell population) (caspase 8 [3]),Active caspase 8 (cell population) (caspase 8 [4]),Active caspase 3/7 (cell population) (caspase 3/7),"Active caspase 1 (cell population) (caspase 1; A172, 1.0 μM) [%]","Active caspase 1 (cell population) (caspase 1; A172, 1.5 μM)"
"CCC(CO)NS(=O)(=O)c1ccc(-n2nc(C)c3nc4nnnn4nc32)cc1 (stereo in doubt) [MM118, N-(R)-(1-hydroxy-but-2-yl)-4-[7-methyl-5H-pyrazolo[4,3-e]tetrazolo[1,5-b][1]^,[2]^,[4]triazin-5-yl)]benzenesulfonamide]",889 ± 243,992 ± 370,24.27 ± 2.74,42.85 ± 5.36%,73.65 ± 3.76%,60.08 ± 2.50%,12.10 ± 1.69,20.38 ± 1.75%
"CCC(CO)NS(=O)(=O)c1ccc(-n2nc(C)c3nc4nnnn4nc32)cc1 (stereo in doubt) [MM119, N-(S)-(1-hydroxy-but-2-yl)-4-[7-methyl-5H-pyrazolo[4,3-e]tetrazolo[1,5-b][1]^,[2]^,[4]triazin-5-yl)]benzenesulfonamide]",1240 ± 386,1190 ± 422,28.02 ± 5.27,34.35 ± 7.58%,69.15 ± 6.30%,57.48 ± 19.68%,12.35 ± 2.00,21.30 ± 1.57%
"Cn1nnc2c(C(N)=O)ncn2c1=O [TMZ, temozolomide, reference compound]",> 10000,> 10000,1.18 ± 0.25,No significant statistical differences,No significant statistical differences,no significant differences,,no significant differences
